The source of these data is patent publication US9981959B2, “Thiazolyl and oxazolyl urea, thiourea, guanidine and cyanoguanidine compounds as TrkA kinase inhibitors” (Array BioPharma Inc., priority 2012, dated 2018).

For this assay, the target named is TrkA (Homo sapiens, UniProt P04629). In words: TrkA LanthaScreen Eu Kinase Binding Assay. More on the design: 6HIS tagged cytoplasmic domain from Invitrogen, Cat. No. PV3144; purchased Invitrogen PV3144. The conditions noted are these: averaged IC50; TR-FRET binding, 60 min, 22° C.; read-out: TrkA enzyme IC50. As to the method: TrkA binding activity was determined in a TrkA LanthaScreen™ Eu Kinase Binding Assay. 5 nM His-tagged recombinant human TrkA (6HIS tagged cytoplasmic domain from Invitrogen, Cat. No. PV3144) was incubated with 4 nM Alexa-Fluor® Tracer 236 (Invitrogen Cat. No. PV5592), 2 nM biotinylated anti-His (Invitrogen Cat. No. PV6090), and 2 nM europium-labeled Streptavidin (Invitrogen Cat. No. PV5899), in buffer (25 mM MOPS, pH 7.5, 5 mM MgCl2, 0.005% Triton X-100). Three fold serial dilutions of compounds of the invention in DMSO were added to a final percentage of 2% DMSO. After 60-minute incubation at 22° C., the reaction was measured using the EnVision mutlimode plate reader (PerkinElmer) via TR-FRET dual wavelength detection at […]. The percent of control was calculated using a ratiometric emission factor. The IC50 values were determined by fitting a four parameter model to the percent of control data.
Chain of TrkA (P04629 440-796 limits assumed): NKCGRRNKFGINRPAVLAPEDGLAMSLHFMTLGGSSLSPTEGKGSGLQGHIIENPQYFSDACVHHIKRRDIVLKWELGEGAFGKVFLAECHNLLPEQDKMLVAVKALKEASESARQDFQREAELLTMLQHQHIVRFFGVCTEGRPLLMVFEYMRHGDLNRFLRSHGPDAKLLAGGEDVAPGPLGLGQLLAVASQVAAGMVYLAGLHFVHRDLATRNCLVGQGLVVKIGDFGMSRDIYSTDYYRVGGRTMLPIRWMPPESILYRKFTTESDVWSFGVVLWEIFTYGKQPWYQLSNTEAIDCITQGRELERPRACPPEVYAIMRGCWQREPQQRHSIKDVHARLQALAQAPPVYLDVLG
Table A provides averaged IC50 values for compounds of the invention when tested in the assay of Example A, where A represents an averaged IC50 value <100 nM; and B represents an averaged IC50 value from 100 to 1,000 nM.
For orientation: TR-FRET usually uses a lanthanide donor and a delayed reading to cut background.
In general, IC50 refers to the concentration that inhibits the measured activity by half. As for `Cc1nc(-c2ccccc2)c(NC(=O)Nc2c(C)c(-c3cnn(C)c3)nn2-c2ccccc2)s1` [Example 1, 1-(1′,4-dimethyl-1-phenyl-1H,1′H-[3,4′-bipyrazol]-5-yl)-3-(2-methyl-4-phenylthiazol-5-yl)urea], the 50% inhibitory concentration (IC50) was less than 100 nM. For `Cc1nc(-c2ccccc2)c(NC(=O)Nc2c(C)c(-c3cnn(C)c3)nn2-c2ccccc2)o1` [Example 3, 1-(1′,4-dimethyl-1-phenyl-1H, 1′H-[3,4′-bipyrazol]-5-yl)-3-(2-methyl-4-phenyloxazol-5-yl)urea], the IC50 is 100 to 1000 nM. As for `Cc1c(C(N)=O)nn(-c2ccccc2)c1NC(=O)Nc1sc(C(F)(F)F)nc1-c1ccccc1` [Example 4, 4-methyl-1-phenyl-5-(3-(4-phenyl-2-(trifluoromethyl)thiazol-5-yl)ureido)-1H-pyrazole-3-carboxamide], the half-maximal inhibitory concentration (IC50) was in the range of 100 to 1000 nM.

For `Cc1c(OCCO)nn(-c2ccccc2)c1NC(=O)Nc1sc(C(F)(F)F)nc1-c1ccccc1` [Example 5, 1-(3-(2-hydroxyethoxy)-4-methyl-1-phenyl-1H-pyrazol-5-yl)-3-(4-phenyl-2-(trifluoromethyl)thiazol-5-yl)urea], the half-inhibitory concentration (IC50) was less than 100 nM.
